Columns and labels:
human 5-HT2A receptor = human 5-HT2A receptor (Homo sapiens (Human), UniProt P28223); assay: Radioligand ([3H]-ketanserin) binding assay on human 5-HT2A receptor
Procedure: i. Prepare the assay buffer following the table below;
ii. Preparation of 8 doses of reference and exemplary test compounds starting from 10 mM stock solution as requested by 5-fold serial dilutions with 100%;
iii. […] a. Add 50 μl/well of 0.5% (v/v) PEI to UniFilter-96 GF/B plates. Seal the plates and incubate at 4° C. for 3 hrs; b. After incubation, wash the plates 3 times with ice-cold wash buffer (50 mM Tris, pH7.4);
iv. Preparation of assay plates: a. Dilute cell membrane with assay buffer and add 330 μl/well to 96 round deep well plates to reach a concentration of 20 μg/well; b. Prepare 8 concentrations of reference or exemplary test compounds and add 110 μl/well to 96 round deep well plates; c. Dilute [3H]-ketanserin with assay buffer to 5 nM (5× final concentration) and add 110 μl/well to 96 round deep well plates.
v. Centrifuge the plate at 1000 rpm for 30 secs and then agitate at 600 rpm, R.T. for 5 min.
vi. Seal the plates and incubate the plate at 27° C. for 90 min.
vii. Stop the incubation by vacuum filtration onto GF/B filter plates followed by 4 times washing with ice-cold wash buffer (50 mM Tris, pH7.4).
ix. Seal the filter plates and add 40 μl/well of scintillation cocktail.
x. Read the plate by using a Microbeta2 microplate counter.
For reference and exemplary test compounds, the results are expressed as % Inhibition, using the normalization equation: N=100−100×(U−C2)/(C1−C2), where U is the unknown value, C1 is the average of high controls, and C2 is the average of low controls. The IC50 is determined by fitting percentage of inhibition as a function of compound concentrations with Hill equation using XLfit.

[1] = test system: head-twitch response (HTR) in male C57BL6 mice; assay: Mouse head-twitch response (HTR); format: in vivo; conditions: M100907 0.5 mg/kg IP before I-2 10 mg/kg SC
Procedure: Male, C57BL/6J mice (body weight range 20-30 g) were dosed with the appropriate dose of test article, and following a 1-minute pre-treatment time, placed in individual observation chambers. Animals were visually assessed for the incidence head twitches continuously over a 1 hr period. Head twitches were defined as a rapid jerk of the head which was not elicited by an external tactile stimulus (Come and Pickering, Psychopharmacologia, 1967, 11(1): 65-78). Each head twitch was individually counted by a trained observer, and the data expressed as the mean±SEM of 6-10 mice per group. Mice were used in a single experiment only.
The effect of various doses of exemplary compound of Formula I, I-2, on head-twitch response (HTR) in male C57BL6 mice were measured. The mice were treated with compound I-2 (0.03-10 mg/kg, SC) by SC route (N=6 mice/dose), and the total number of head twitches were recorded over a 1h period. Data is expressed as mean±SEM. The induction of head twitches elicited by 5-HT2A receptor agonists is believed to represent a behavioural proxy of their psychedelic effects.
To evaluate the involvement of 5-HT2A receptor on the HTR induced by exemplary compounds of Formula I, mice were pretreated with the selective 5-HT2AR antagonist M100907 (also known as volinanserin) prior to the administration of exemplary compounds of Formula I, for example, 1-2 (10 mg/kg SC).

[2] = target: human 5-HT2A (h5-HT2A) receptor (Homo sapiens (Human), UniProt P28223); assay: FLIPR calcium assay, human 5-HT2A receptor, agonist mode; format: cell-based
Procedure: I. Assessment of the Activated Effect of Exemplary Compounds of Formula I Targeting on Human 5-HT2A (h5-HT2A) Receptor Under Agonist Mode:
1. Culture the cells in cell culture medium (DMEM containing 10% FBS, 1× penicillin-streptomycin 300 μg/ml G418 and 100 μg/ml hygromycin B) at 37° C., 5% (v/v) CO2.
2. One day before the assays, detach the cell using TrypLE™ Express and count cells using cell counter.
3. Seed 20000 cells/well in 30 μl/well culture medium to a 384-well cell plate and incubate the cells overnight at 37° C., 5% (v/v) CO2.
4. On the assay day, prepare 2×dye solution following the manual of the FLIPR® Calcium 6 Assay Kit: i. Dilute the dye with assay buffer(20 mM HEPES in 1× HBSS, PH7.4); ii. Add probenecid to the final concentration of 5 mM; iii. Vortex vigorously for 1-2 minutes.
5. Medium from cell plate by flicking the cell plate on towel papers.
6. Add 10 μl of assay buffer and 10 μl of 2×dye solution to each well of the cell plate.
7. Put the cell plate on plate shaker, agitate the plate at 600 rpm for 2 minutes. Incubate the plate at 37° C. for 2 hours followed by additional 15-minute incubation at 25° C.
8. Prepare 3×compound in assay buffer: a. Dilute reference compounds to required concentration with DMSO. Add the compounds to a 384-well compound plate; b. Perform serial dilutions; c. Add 10 mM test compounds to the compound plate, perform 3-fold serial dilutions. d. […] Add 20 μl/well assay buffer to the compound plate; f. Mix the plate on plate shaker for 2 mins;
i. The normalized fluorescence reading (RFU) is calculated as shown follow, while Fmax and Fmin stand for maximum and minimum of calcium signal during defined time window: RFU=Fmax−Fmin
ii. Calculate the percentage activation by using following equation: […]
iii. Calculate EC50 by fitting % activation against log of compound concentrations with Hill equation using XLfit.

Compound	IC50 (human 5-HT2A receptor) [nM]	effect of I-2 on HTR after pretreatment with 5-HT2A antagonist M100907 [1]	EC50 [2] [nM]
[2H]C([2H])([2H])N1CCC[C@@H]1Cc1c[nH]c2cccc(O)c12 [Compound I-2, (R)-3-((1-(methyl-d3)pyrrolidin-2-yl)methyl)-1H-indol-4-ol]	< 500	completely blocked	< 1000
[2H]C([2H])(c1c[nH]c2cccc(OC)c12)[C@H]1CCCN1C([2H])([2H])[2H] [Compound I-39, (R)-4-methoxy-3-((1-(methyl-d3)pyrrolidin-2-yl)methyl-d2)-1H-indole]	500 to 5000		< 1000
[2H]C([2H])(c1c[nH]c2cccc(O)c12)[C@H]1CCCN1C([2H])([2H])[2H] [Compound I-44, (R)-3-((1-(methyl-d3)pyrrolidin-2-yl)methyl-d2)-1H-indol-4-ol]	< 500		< 1000
